Reference: patent publication US20260083126A1, “ANTIMICROBIAL COMPOSITIONS” (AHV International B.V., priority 2022, published 2026)
≈ marks a conversion by molar mass, not a printed value. Entries after “also recorded” stand apart in the source; their conditions may differ. Where two headings read alike, the source gives them in different places.

Assays:
Format in all cases: cell-based
Caco-2 cell line = assay: MTT cytotoxicity test; conditions: 24 h, 7.8 μM to 1 mM, emulsified with Tween-80/DMSO
Description: Scope. As standard tests cytotoxicity is measured on Caco-2 and HepG2 cell lines. Cytotoxicity of mentioned cell lines was determined by measuring the amount of converted MTT (3-(4,5-dimethylthiazol-2-yl)-2,5-diphenyltetrazolium bromide) by a mitochondrial dehydrogenase after exposure of various concentrations of the antimicrobial compounds. In living cells the dehydrogenase converts the soluble MTT into water insoluble purple formazan crystals that can not pass the cell membrane. The higher the metabolic activity of the cell, the more purple crystals are formed, the lower the cytotoxicity of the antimicrobial compound. Experimental design. The Caco-2 cell line as colorectal adenocarcinoma cells and HepG2 (derived from human liver) were used for the current experiments and were obtained from the ATCC. The intestinal Caco-2 cell line was cultured in 75-cm^2 culture flasks. Minimum Essential Medium (MEM) (Catalog Number(s) 31095029, ThermoFischer Scientific), supplemented with 10% (v/v) inactivated fetal calf serum (FCS) (Gibco), 1% (v/v) nonessential amino acids (Gibco), 1% sodium pyruvate (Gibco) and penicillin (100 U/ml)/streptomycin (100 μg/ml.) was utilized as medium for the growing cells. The cells were preserved in an incubator to provide them with the optimum moisture and temperature (humidified atmosphere of 95% air and 5% CO2 at 37° C. for 72 hours). The Caco-2 cells were seeded in flat bottom 96-well plates for performing the experiments. The cells were grown on flat bottom 96-well plates to the appropriate density to run the experiments. The cells were exposed to increasing concentrations of emulsified test compound (8 concentration, ranging from 7.8 μM to 1 mM) in standard culture medium (Catalogue 31331028, ThemoFischer Scientific) for each cell line. It should be noted that all the experiments were conducted in FBS (Catalog A3840101, ThermoFischer Scientific) and antibiotic free medium. The concentration of Tween-80 and DMSO that is present in the assay to emulsify the antimicrobial compound was in the range from 0,007% to 1%. The cells were incubated for 24 h with emulsified test compound and the assay was performed based on the standard protocol. By the end of the experiment the medium (cell supernatants) was removed and the lysis buffer (0.04 M hydrochloric acid, in propan-2-ol) was added to each well to solubilize the purple formazan crystals. As the final step, the absorbance was recorded by a multi-well reader at 595 nm. […] The results from all experiments were expressed as mean #standard error of the mean (SEM) conducted in triplicate (three wells/condition) of three independent experiments. Differences between results were statistically evaluated using One-way ANOVA with Bonferroni post-hoc test.

[1] = test system: Acinetobacter baumanni RUH875; assay: MIC assay; conditions: for MIC90 / MIC50: Acinetobacter
Description: (§1) The exact weighed amount was noted and the volume of solvent to reach a 80 mM dilution calculated. Half of the volume was added first, by adding Tween 80 and let stand for 5 minutes. In a second step, the other half of the volume DMSO was added and resuspended to help the dilution process. The closed tube was inverted 5-10 times and then vortexed very thoroughly for at least 30 seconds. If after this procedure crystals were still visible, the tube was placed in a shaker at 37° C. at 150 rpm for at least 30 minutes (it is indicated if the dissolution period was longer than 2 h). […] In case of Bis(4-Chlorophenyl) thiosulfonate, a lower concentrated stock solution of 2 mM needed to be prepared. For that, the required amount of compound was weighed in and 2% v/v Tween80 and 2% v/v DMSO of the end volume of the stock solution was added to the substance. This mix was heated in a water bath set to 40° C. and occasionally shaken. When the whole amount of the substance reached dissolution, the volume was filled up with growth medium until the end volume. This 2 mM stock solution of Bis(4-Chlorophenyl) thiosulfonate was used in the MIC plate and diluted two-fold, resulting in a testing range of Bis(4-Chlorophenyl) thiosulfonate from 1 mM to 0.002 mM.
(§2) The microorganisms as indicated in Table 4 were used to inoculate a tryptic soy agar (TSA) plate and incubated overnight at 37° C. After incubation 3-5 well-isolated colonies with the same morphology were selected from the TSA plate and resuspended in 2 mL 0.9% saline solution with 3-6 glass beads and vortexed. The optical density at 600 nm (OD600) of the bacterial suspension was measured with a spectrophotometer (Evolution™ 201/220 UV-Visible Spectrophotometer, Thermo Fisher Scientific) and diluted to an OD600 of 0.0008, which resembles 10^6 CFU/mL.
(§3) The MIC assay was performed in a flat-bottom 96-microtiter plate. 50 μL of MHB-II was added into columns 2-11, and 100 μL to column 12 for sterility control. 100 μL of the 8 mM test compound solution (method 1) was added to column 1. A two-fold dilution series of the solution in MHB-II was achieved by resuspending 50 μL of the 8 mM solution from column 1 to column 2. This step was repeated until column 10. The respective concentration of Tween 80 and DMSO in column 1 was 2.5%, which is two-fold diluted throughout the plate. 50 μL of the bacterial suspension was added to column 1-11. The microtiter plates were sealed with adhesive polyethylene film for sealing microplates (Diversified Biotech) and incubated for 24 h at 37° C. After incubation the OD was measured at 600 nm with the Varioskan (Thermo Fisher Scientific). The minimal concentration which causes reduction of final OD600 of the bacterial culture by 50% (MIC50) and by 90% (MIC90) was calculated after normalization of the obtained OD values to the growth control in column 11. This assay was repeated three times in three independent experiments.
(§4) Hereafter, the stock solutions of the compounds were used in three repetitions in a minimal inhibitory concentration (MIC) assay at a 2-fold dilution range with various bacteria from the gram-positive and gram-negative group and a yeast, Candida albicans. The concentrations that show only less than 10% growth after 24 h were considered the MIC90-values, whereas the concentrations that show 50% growth after 24 h when compared to the bacterial growth control were considered the MIC50-values. Escherichia coli and Staphylococcus aureus were used as representatives for a gram-negative bacteria and gram-positive bacteria, respectively. Furthermore, the yeast C. albicans was also tested.
(§5) In an Eppendorf tube between 10-20 mg of the test compound was weighed. Hereafter, the required amount of Tween 80 was added, followed by the amount DMSO. After vigorous shaking, the dissolved and transparent dilutions were diluted 10 times with Mueller Hinton Broth (MHB) for the MIC assay. […]

[2] = test system: Streptococcus agalactiae ATCC 13813; assay: MIC assay; conditions: for MIC50 / MIC90: Streptococcus agalactiae, ATCC13813
Description: as §1, §2, §3, §4, §5

[3] = test system: Micrococcus luteus ATCC 4698; assay: MIC assay; conditions: Example 2a, n = 3, ATCC 4698; for MIC50 / MIC90: Micrococcus luteus, ATCC4698
Description: as §1, §2, §3

[4] = RUH875, Example 2b, FIG. 1, no MIC90 detected in the tested range, read-out: Average MIC90 A. baumanni (Ab)
[5] = Example 2a, n = 3, RUH875, read-out: MIC90 Acinetobacter baumanni
[6] = Example 2a, n = 3, ATCC 13813, read-out: MIC90 Streptococcus agalactiae (+)

## Clc1ccc(SSc2ccc(Cl)cc2)cc1 [Bis (4-chlorophenyl) disulfide, Bis(4-chlorophenyl) disulfide]
Caco-2 cell line
  cytotoxic effect on Caco-2 cells (MTT): cytotoxic effects
[1]; [4]
  MIC90: > 1000 µM
[1]; Example 2a, n = 3, RUH875
  MIC50: > 4000 µM
[1]; [5]
  MIC90: > 4000 µM
[2]; Example 2a, n = 3, ATCC 13813
  MIC50: 10 µM (≈ 2.87 µg/mL)
[2]; [6]
  MIC90: 70 µM (≈ 20.1 µg/mL)
[2]; Example 2b, FIG. 1, no MIC90 detected in the tested range, read-out: Average MIC90 S. agalactiae (Sag)
  MIC90: > 1000 µM
[3]
  MIC50: 50 µM (≈ 14.4 µg/mL)
  MIC90: 250 µM (≈ 71.8 µg/mL)

## O=S(=O)(Sc1ccc(Cl)cc1)c1ccc(Cl)cc1 [Bis (4-chlorophenyl) thiosulfonate, Bis(4-chlorophenyl) thiosulfonate]
Caco-2 cell line
  cytotoxic effect on Caco-2 cells (MTT): cytotoxic effects
[1]; Example 2a, n = 3, RUH875
  MIC50 Acinetobacter baumanni: >1000 µM
  MIC90 Acinetobacter baumanni: >1000 µM
[2]; Example 2a, n = 3, ATCC 13813
  MIC50 Streptococcus agalactiae (+): 160 µM
  MIC90 Streptococcus agalactiae (+): 500 µM
[3]
  MIC50 Micrococcus luteus (+): 210 µM
  MIC90 Micrococcus luteus (+): 750 µM

## Fc1ccc(SSc2ccc(F)cc2)cc1 [Bis (4-fluorophenyl) disulfide, Bis(4-fluorophenyl) disulfide]
Caco-2 cell line
  cytotoxic effect on Caco-2 cells (MTT): cytotoxic effects
[1]; [4]
  MIC90: > 4000 µM
[1]; Example 2a, n = 3, RUH875
  MIC50: 3000 µM (≈ 763 µg/mL)
[1]; [5]
  MIC90: > 4000 µM
[2]; Example 2a, n = 3, ATCC 13813
  MIC50: 210 µM (≈ 53.4 µg/mL)
[2]; [6]
  MIC90: 500 µM (≈ 127 µg/mL)
[3]
  MIC50: 750 µM (≈ 191 µg/mL)
  MIC90: 2000 µM (≈ 509 µg/mL)

## [O-][S+](Sc1ccc(F)cc1)c1ccc(F)cc1 (stereo not shown) [Bis (4-fluorophenyl) thiosulfinate, Bis(4-fluorophenyl) thiosulfinate]
[1]; Example 2a, n = 3, RUH875
  MIC50 Acinetobacter baumanni: 2000 µM (≈ 541 µg/mL)
  MIC90 Acinetobacter baumanni: >4000 µM
[2]; Example 2a, n = 3, ATCC 13813
  MIC50 Streptococcus agalactiae (+): 1040 µM (≈ 281 µg/mL)
  MIC90 Streptococcus agalactiae (+): 1670 µM (≈ 451 µg/mL)
[3]
  MIC50 Micrococcus luteus (+): 2000 µM (≈ 541 µg/mL)
  MIC90 Micrococcus luteus (+): 3330 µM (≈ 900 µg/mL)

## O=S(=O)(Sc1ccc(F)cc1)c1ccc(F)cc1 [Bis (4-fluorophenyl) thiosulfonate, Bis(4-fluorophenyl) thiosulfonate]
[1]; Example 2a, n = 3, RUH875
  MIC50 Acinetobacter baumanni: 2830 µM
  MIC90 Acinetobacter baumanni: >4000 µM
[2]; Example 2a, n = 3, ATCC 13813
  MIC50 Streptococcus agalactiae (+): 1330 µM
  MIC90 Streptococcus agalactiae (+): 1670 µM
[3]
  MIC50 Micrococcus luteus (+): 1500 µM
  MIC90 Micrococcus luteus (+): 2000 µM

## CC(C)SS(=O)(=O)C(C)C [Di-isopropyl thiosulfonate]
Caco-2 cell line
  cytotoxic effect on Caco-2 cells (MTT): cytotoxic effects; also recorded: cytotoxicity is lowest
